PubChem BioAssay (NCI)
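Cultured in 96-well plates, cells were exposed to test compound for 48 hours across five concentrations. TGI: concentration producing complete growth inhibition.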

Tests used:
Test in all cases: NCI tumour cell line growth inhibition, 48 h
SR leukemia = test system: SR leukemia
NCI-H226 lung = test system: NCI-H226 lung
COLO 205 colon = test system: COLO 205 colon
HS 578T breast = test system: HS 578T breast
LOX IMVI melanoma = test system: LOX IMVI melanoma
OVCAR-4 ovarian = test system: OVCAR-4 ovarian
NCI-H23 lung = test system: NCI-H23 lung
NCI-H522 lung = test system: NCI-H522 lung
SW-620 colon = test system: SW-620 colon
HT29 colon = test system: HT29 colon

Compound | TGI (SR leukemia) [µM] | TGI (NCI-H226 lung) [µM] | TGI (COLO 205 colon) [µM] | TGI (HS 578T breast) [µM] | TGI (LOX IMVI melanoma) [µM] | TGI (OVCAR-4 ovarian) [µM] | TGI (NCI-H23 lung) [µM] | TGI (NCI-H522 lung) [µM] | TGI (SW-620 colon) [µM] | TGI (HT29 colon) [µM]
Cc1ccc(-n2cc(-c3ccc(Cl)cc3)c3c(NNC(=S)NCc4ccccc4)ncnc32)cc1 | 21.5 | > 100 | 27.3 | > 100 | 22.8 | > 100 | 60.4 | 13.2 | > 100 | 50.7
CC1=CC(=O)C[C@]2(C)[C@@H](O)CC(C(C)CO)C[C@@H]12 (some centres not stated) | – | > 100 | > 100 | – | > 100 | > 100 | > 100 | – | > 100 | > 100
CC1(C)CC(=O)C2=C(C1)OC1=C(CC(C)(C)CC1=O)C2c1ccccc1Cl (configuration not stated) | > 100 | > 100 | > 100 | > 100 | > 100 | > 100 | > 100 | > 100 | > 100 | > 100
O=C(C(Cl)=C(Nc1ccccc1)Nc1ccccc1)C(Cl)Cl | 49.4 | 93.6 | 97.7 | > 100 | 30.3 | > 100 | 93.2 | 37.4 | 57 | 48.1
C=CC(C)(C)c1cc([C@@H]2COc3cc(O)ccc3C2=O)c(O)c(OC)c1OC | > 100 | 38.9 | 45 | 72.2 | 37.9 | 19.7 | 27.2 | 20.9 | > 100 | 47.3
O=C(Cl)c1cc([N+](=O)[O-])cc([N+](=O)[O-])c1 | > 100 | > 100 | > 100 | – | > 100 | > 100 | > 100 | > 100 | > 100 | > 100
COC[C@H](Cc1ccccc1)N=Cc1ccccc1 | > 100 | – | > 100 | > 100 | > 100 | > 100 | > 100 | > 100 | > 100 | > 100
CC(C)CCC[C@@H](C)[C@H]1CC[C@H]2[C@@H]3CC=C4CC(OCCCCN(O)CCCSC5OC(CO)C(O)C(O)C5O)CC[C@]4(C)[C@H]3CC[C@]12C (some centres not stated) | > 100 | – | 47.3 | – | 50.7 | > 100 | > 100 | 49.6 | 49.4 | > 100
CCO/C=N/C1=C(C#N)C(c2ccc(OC)c(OC)c2)c2c(-c3ccccc3)nn(-c3ccccc3)c2O1 (configuration not stated) | – | 32.9 | 27.1 | > 100 | 31 | – | 31.1 | 38.2 | 29.2 | 52.5
Clc1ccc(CCn2ccc3ccccc32)c(Cl)c1 | > 100 | > 100 | > 100 | > 100 | – | > 100 | > 100 | > 100 | > 100 | > 100
CCOC(=O)C1(C/C=C\CBr)CCCCCCC1=O (configuration not stated) | – | > 100 | > 100 | > 100 | > 100 | > 100 | > 100 | > 100 | > 100 | > 100
OB1OCc2ccccc21 | > 100 | > 100 | > 100 | > 100 | > 100 | 92.8 | > 100 | – | > 100 | > 100
CCC1OC(=O)C(C)C(OC2CC(C)(O)C(O)C(C)O2)C(C)C(O)C(C)(O)CC(C)C(=O)C(C)C(O)C1C (configuration not stated) | – | > 300 | > 300 | – | > 300 | > 300 | > 300 | > 300 | > 300 | > 300
COC(=O)C1(C(=O)OC)CC2=C(S(=O)(=O)c3ccccc3)C[C@@H](C#N)[C@H]2C1 | – | > 100 | > 100 | – | > 100 | > 100 | > 100 | > 100 | > 100 | > 100
CCCCCCCCCCCCCCCCCc1nc(C#N)c(N)o1 | 33.3 | – | – | 85.4 | > 100 | – | – | – | > 100 | > 100
CC(C)(C)C(=O)Cc1cc2c(cc1C(=O)O)S(=O)(=O)NC(C(C)(C)C)=C2 | > 100 | > 100 | > 100 | – | – | > 100 | > 100 | > 100 | > 100 | > 100
COc1ccc(C2Oc3cc(OC)c(O)cc3[C@@H]2C)cc1 (some centres not stated) | – | 92.6 | > 100 | – | 27.9 | > 100 | > 100 | 38 | 40.2 | > 100
Nc1nc(NC(=O)C2=NS(=O)(=O)c3cc(S(N)(=O)=O)c(Cl)cc3N2)n[nH]1 | > 100 | > 100 | > 100 | – | > 100 | > 100 | > 100 | > 100 | > 100 | > 100
O=c1n(CCO)nc2n1CCCN2 | > 100 | > 100 | > 100 | > 100 | > 100 | > 100 | > 100 | – | > 100 | > 100
O=c1[nH]/c(=C/c2ccc(OCc3ccccc3)cn2)c(=O)[nH]/c1=C/c1cccnc1 | > 100 | – | 6.13 | – | > 100 | > 61.5 | – | 0.588 | > 100 | > 100
COCN1C(=O)[C@@H]2C[C@@H](OC/C=C/CBr)CN2C(=O)c2ccccc21 | – | 29.9 | 42.8 | > 100 | 13.1 | 35.7 | 81.5 | 25.9 | 45.6 | 82.1
CC1=C2CC3=C(C)C(=O)O[C@H]3C[C@@H](C)[C@@H]2CC1 | > 100 | > 100 | > 100 | > 100 | > 100 | > 100 | > 100 | – | > 100 | > 100
COc1cc(NS(C)(=O)=O)ccc1N1Cc2cnc3ccc4[nH]ccc1c4c23 | – | 93.5 | > 100 | > 100 | 41.6 | > 100 | > 100 | > 100 | > 100 | > 100
